# Reference: US8309068B2, “Isolated polypeptides and methods of improving muscle strength” (Myostin Therapeutics Pty Ltd., priority 2006, dated 2012)
# Where no end group is shown, it is not given here.
# Assays:
# myostatin = test: Myoblast chemotaxis assay, recovery of myostatin chemo-inhibition by antagonists; format: cell-based
# Protocol: Primary myoblasts were cultured from the hind limb muscle of young (4 to 6 week old) or old (24 month old) mice, according to the published protocols (Allen et al., 1997; Partridge, 1997). Briefly, muscles were minced, and digested in 0.2% collagenase type 1A for 90 min. Cultures were enriched for myoblasts by pre-plating on uncoated plates for 3 hours. Myoblast cultures were maintained in growth media (GM) supplemented with 20% fetal calf serum (FCS), 10% HS and 1% CEE on 10% Matrigel coated plates, at 37° C./5% CO2. The extent of culture purity was assessed by flow cytometry analysis of MyoD expression after 48 hours in culture. Cells were harvested using trypsin, suspended at a concentration of 10^6 cells/200 μl and fixed overnight in 5 ml 70% ethanol at −20° C. Staining was performed for 30 min at room temperature using rabbit polyclonal anti-MyoD, 1:200 (Santa Cruz), followed by Alexa fluor 488 anti-rabbit conjugate, 1:500 (Molecular Probes). Analysis was carried out in duplicate with 10^4 cell events collected in each assay. Debris was excluded by gating on forward and side scatter profiles. Cells were analyzed by FACScan (Becton Dickinson). Macrophages were isolated by a peritoneal lavage technique and/or derived from bone marrow Zymosan-activated mouse serum (ZAMS) was prepared according to the published protocol (Colditz and Movat, 1984).
# For the chemotaxis assay of myoblasts, a first assay was carried out on myoblasts from 2 year old mice as follows. DMEM containing 2% horse serum (HS), 5% chicken embryo extract (CEE) plus dialysis buffer was used as positive control. […] Plain DMEM was used as negative control. On a 24-well plate, the bottom wells were filled with test or control media. Seventy-five thousand cells were added to the top wells containing polyethylene terephthalate (PET) 0.8 μm membranes coated with 1% Matrigel. The plate was incubated for 7 h at 37° C., 5% CO2. […] The membrane was then fixed, stained in Gill's hematoxylin and wet mounted on slides. Migrated cells were counted on four representative fields per membrane and the average number plotted. The results are shown in FIG. 6 (myoblast migration from old mice) and FIG. 7 (myoblast migration from young mice).
# p-FoxO1 = test: In vitro cancer cachexia trial: p-FoxO1 Western blot in C2C12 myotubes; format: cell-based, murine; settings: with myostatin 6 μg/mL; tested at 30, 60, 90 or 120 μg/mL; 24 hours
# Protocol: C2C12 cells were differentiated for 72 hours in differentiation media (DMEM+2% HS). Following this period of differentiation the myotubes were tested with recombinant myostatin at 6 μg/mL or a combination of both myostatin and 300 recombinant protein at 30, 60, 90 or 120 μg/mL for further 24 hours to determine if 300 can rescue myostatin-mediated muscle wasting in vitro. Gene expression changes of intermediate signalling molecules critical in myostatin-mediated cachexia were analysed. Therefore, protein was isolated from cells and Western blot analysis was performed to measure protein expression levels for p-FoxO1, which we have shown to be a critical signalling intermediates in Myostatin-mediated cachexia (McFarlane et al 2006).
# [1] = test system: skin burn in C56b1/6 mice; test: In vivo skin burn trial (hydroxyproline assay); settings: 6 μg/g SC day 1, 3, 5, 7 and 10, vs control
# Protocol: C56b1/6 mice at ˜12 months of age were anesthetized, the skin at the back of the neck was shaved, and a red-hot metal rod (1.5 mm wide, 7 mm long) was applied to the exposed skin of the mice for 5 sec. The mice were injected subcutaneously with either saline or 300 myostatin antagonist at 6 μg/g of body weight at day 1, 3, 5, 7 and 10 after injury. The mice were allowed to heal for 5, 7, 14, 21, 28, 35 and 46 days, after which they were culled and the skin frozen in liquid nitrogen for hydroxyproline analysis.
# After a burn injury in skin a hydroxyproline assay was performed to determine the amount of collagen deposits on the wound area. Hydroxyproline is present in collagen, and gives it a stable helical conformation. Therefore, measuring the amount of hydroxyproline present in a given tissue will determine the amount of collagen present in the tissue.
# primary ovine myoblasts = test: Ovine myoblast proliferation assay; format: cell-based; settings: 1, 5 or 10 μg/ml; 48 hours
# Protocol: Human skeletal muscle myoblasts (Cambrex, USA) or primary ovine myoblasts were grown in Dulbecco's Modified Eagle Medium containing 20% FBS, 10% Horse serum and 0.5% chicken embryo extract according to the standard techniques. The myoblast proliferation assay was carried out in uncoated 96-well microtitre plates. Cell cultures were seeded at 2000 cells/well. Following a 24-hour attachment period, test media supplemented with 5% FCS containing either buffer as a control or different myostatin antagonists (300, 310 or 320) were added at 1, 5 and 10 μg/ml and cells were incubated for a further 144 hour period (for human cells) or 48 hours (for ovine cells). After the incubation period, proliferation was assessed using methylene blue photometric endpoint assay as previously described (Thomas et al, 2000).
# C2C12 myoblasts = test: C2C12 myoblast proliferation assay (methylene blue endpoint); format: cell-based, murine
# Protocol: A polypeptide of the invention, or a fragment, variant or derivative thereof has the biological function of antagonising myostatin activity. To determine whether a polypeptide of the invention, or a fragment, variant or derivative thereof, is able to antagonise myostatin activity, such activity can be tested by growing myoblasts in the presence or absence (control) of a candidate polypeptide of the invention. […]
# The myoblast proliferation assay was carried out in uncoated 96-well microtitre plates. C2C12 cultures were seeded at 1000 cells/well. Following a 16-hour attachment period, test media containing either recombinant wild type myostatin or different myostatin antagonists were added and cells were incubated for a further 48 or 72 hour period. For competition assay, wild type myostatin was competed with different concentrations of myostatin antagonists prior to the addition into the media. After the incubation period, proliferation was assessed using methylene blue photometric endpoint assay as previously described (Thomas et al, 2000).
substance,measurement,setting,value
"myostatin antagonist 300: recombinant peptide, amino acids 267-300 of bovine myostatin, with N terminal and C terminal tag (SEQ ID NO: 6) (DFGLDCDEHSTESRCCRYPLTVDFEAFGWDWIIA; cysteine pairing not given here; also: N- and C-terminal tags; listed as Homo sapiens)",rescue of chemo-inhibiting effects of myostatin on myoblast migration,"myostatin; myoblasts from old (2 year old) mice, antagonist added at 5 μg/ml, myostatin 2.5 μg/ml",rescued to levels similar to those observed in the control
same,rescue of chemo-inhibiting effects of myostatin on myoblast migration,myostatin; myoblasts from young (1 month old) mice,rescued the migration of myostatin cells to control levels
same,concentration giving maximal rescue of p-FoxO1 expression,p-FoxO1,90 µg/mL
same,collagen on the wound area (hydroxyproline assay),[1],tendency towards lower level of collagen
same,proliferation capacity of ovine myoblasts compared to control,primary ovine myoblasts,significantly enhanced
same,proliferation capacity of myoblasts compared to control,C2C12 myoblasts; 1 μg/ml or 5 μg/ml over 48 or 72 hours,significantly enhanced
same,concentration at which the highest myoblast proliferation rate was observed,C2C12 myoblasts; 48 hour time point,5 µg/mL
